Source: PMC10423218, “Molecular mechanism underlying regulation of Arabidopsis CLCa transporter by nucleotides and phospholipids” (Nature Communications, 2023)
Numbering of substitutions follows the chain as printed.

Key:
AtCLCa [1] = molecular target: T1, AtCLCa (Arabidopsis thaliana, UniProt P92941); assay: whole-cell patch clamp, HEK293T; assay type: cell-based; parameters: gene CLC-A; full-length, homodimer; patch clamp: pKH3 vector in HEK293T; settings: 5 mM in pipette (cytosolic side); nitrate bath; pH 7.4
T1 sequence (P92941 1-775): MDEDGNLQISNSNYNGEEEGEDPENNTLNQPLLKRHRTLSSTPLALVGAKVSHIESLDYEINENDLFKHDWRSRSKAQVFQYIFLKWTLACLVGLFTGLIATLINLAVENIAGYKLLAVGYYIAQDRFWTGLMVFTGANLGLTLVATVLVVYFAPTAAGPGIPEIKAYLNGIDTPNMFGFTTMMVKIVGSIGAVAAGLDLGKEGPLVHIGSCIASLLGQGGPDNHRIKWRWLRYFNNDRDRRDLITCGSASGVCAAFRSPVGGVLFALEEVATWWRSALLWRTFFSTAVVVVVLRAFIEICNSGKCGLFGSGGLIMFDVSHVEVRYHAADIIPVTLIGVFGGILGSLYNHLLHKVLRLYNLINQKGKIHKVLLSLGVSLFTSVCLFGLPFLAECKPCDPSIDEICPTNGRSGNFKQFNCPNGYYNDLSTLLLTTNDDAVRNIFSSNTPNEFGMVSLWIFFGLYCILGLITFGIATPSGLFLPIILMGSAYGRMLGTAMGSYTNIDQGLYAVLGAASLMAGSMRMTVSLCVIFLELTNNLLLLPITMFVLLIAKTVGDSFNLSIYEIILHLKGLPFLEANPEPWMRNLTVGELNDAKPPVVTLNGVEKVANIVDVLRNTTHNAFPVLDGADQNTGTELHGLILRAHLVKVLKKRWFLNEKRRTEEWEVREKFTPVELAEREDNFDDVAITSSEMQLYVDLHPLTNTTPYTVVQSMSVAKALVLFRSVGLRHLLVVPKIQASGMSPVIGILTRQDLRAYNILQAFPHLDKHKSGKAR

AtCLCa [2] = molecular target: T1, AtCLCa; assay: cryo-EM structure, […] Å; assay type: binding; parameters: gene CLC-A; full-length, homodimer; structures: Pichia pastoris GS115, C-terminal GFP-6xHis tag cut by TEV, MSP1D1 nanodiscs; patch clamp: pKH3 vector in HEK293T; settings: Scen and Sint sites; 150 mM NaNO3, pH 8.0
AtCLCa [3] = molecular target: T1, AtCLCa; assay: whole-cell patch clamp, HEK293T; assay type: cell-based; parameters: gene CLC-A; full-length, homodimer; patch clamp: pKH3 vector in HEK293T; settings: pipette (cytosolic side); pH 7.4
AtCLCa [4] = molecular target: T2, AtCLCa (Arabidopsis thaliana, UniProt P92941, E55A/S56A); assay: whole-cell patch clamp, HEK293T; assay type: cell-based; settings: 5 mM in pipette (cytosolic side); nitrate bath; pH 7.4
T2 construct: gene CLC-A; full-length, homodimer; structures: Pichia pastoris GS115, C-terminal GFP-6xHis tag cut by TEV, MSP1D1 nanodiscs; patch clamp: pKH3 vector in HEK293T
T2 sequence (P92941 1-775 E55A/S56A): T1 sequence (P92941 1-775) with E55A, S56A

AtCLCa ΔN44 mutant = molecular target: T3, AtCLCa ΔN44 mutant (Arabidopsis thaliana, UniProt P92941); assay: whole-cell patch clamp, HEK293T; assay type: cell-based; settings: 5 mM in pipette (cytosolic side); nitrate bath; pH 7.4
T3 construct: gene CLC-A; N-terminal 44-residue deletion, beta-hairpin retained, homodimer, pKH3 vector in HEK293T
T3 sequence (P92941 45-775): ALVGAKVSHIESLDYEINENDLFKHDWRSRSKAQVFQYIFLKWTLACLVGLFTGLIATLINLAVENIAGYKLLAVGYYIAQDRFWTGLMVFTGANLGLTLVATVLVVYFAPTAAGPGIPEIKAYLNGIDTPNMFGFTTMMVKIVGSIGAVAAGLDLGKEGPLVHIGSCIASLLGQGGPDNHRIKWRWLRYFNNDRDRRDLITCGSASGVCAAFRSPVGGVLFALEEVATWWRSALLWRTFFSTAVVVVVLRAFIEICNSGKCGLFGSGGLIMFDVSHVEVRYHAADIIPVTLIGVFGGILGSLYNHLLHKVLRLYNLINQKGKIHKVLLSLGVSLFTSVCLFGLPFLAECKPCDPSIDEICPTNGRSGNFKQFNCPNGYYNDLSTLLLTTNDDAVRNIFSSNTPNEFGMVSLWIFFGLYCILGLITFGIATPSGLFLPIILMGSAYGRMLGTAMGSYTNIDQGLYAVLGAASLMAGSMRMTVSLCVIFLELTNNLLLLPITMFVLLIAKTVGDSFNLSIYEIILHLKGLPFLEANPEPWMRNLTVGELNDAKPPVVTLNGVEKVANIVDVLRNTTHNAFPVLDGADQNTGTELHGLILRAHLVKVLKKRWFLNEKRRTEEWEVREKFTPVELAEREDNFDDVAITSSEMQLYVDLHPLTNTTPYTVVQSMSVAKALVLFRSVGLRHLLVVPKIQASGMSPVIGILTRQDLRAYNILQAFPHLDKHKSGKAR

AtCLCa [5] = molecular target: T4, AtCLCa (Arabidopsis thaliana, UniProt P92941, D753A); assay: whole-cell patch clamp, HEK293T; assay type: cell-based; settings: 5 mM in pipette (cytosolic side); nitrate bath; pH 7.4
T4 construct: gene CLC-A; full-length, homodimer; structures: Pichia pastoris GS115, C-terminal GFP-6xHis tag cut by TEV, MSP1D1 nanodiscs; patch clamp: pKH3 vector in HEK293T
T4 sequence (P92941 1-775 D753A): T1 sequence (P92941 1-775) with D753A

AtCLCa ΔN53 mutant = molecular target: T5, AtCLCa ΔN53 mutant (Arabidopsis thaliana, UniProt P92941); assay: whole-cell patch clamp, HEK293T; assay type: cell-based; settings: 5 mM in pipette (cytosolic side); nitrate bath; pH 7.4
T5 construct: gene CLC-A; N-terminal deletion ΔN53 (beta-hairpin residues 44-53 removed), homodimer, pKH3 vector in HEK293T
T5 sequence (P92941 54-775): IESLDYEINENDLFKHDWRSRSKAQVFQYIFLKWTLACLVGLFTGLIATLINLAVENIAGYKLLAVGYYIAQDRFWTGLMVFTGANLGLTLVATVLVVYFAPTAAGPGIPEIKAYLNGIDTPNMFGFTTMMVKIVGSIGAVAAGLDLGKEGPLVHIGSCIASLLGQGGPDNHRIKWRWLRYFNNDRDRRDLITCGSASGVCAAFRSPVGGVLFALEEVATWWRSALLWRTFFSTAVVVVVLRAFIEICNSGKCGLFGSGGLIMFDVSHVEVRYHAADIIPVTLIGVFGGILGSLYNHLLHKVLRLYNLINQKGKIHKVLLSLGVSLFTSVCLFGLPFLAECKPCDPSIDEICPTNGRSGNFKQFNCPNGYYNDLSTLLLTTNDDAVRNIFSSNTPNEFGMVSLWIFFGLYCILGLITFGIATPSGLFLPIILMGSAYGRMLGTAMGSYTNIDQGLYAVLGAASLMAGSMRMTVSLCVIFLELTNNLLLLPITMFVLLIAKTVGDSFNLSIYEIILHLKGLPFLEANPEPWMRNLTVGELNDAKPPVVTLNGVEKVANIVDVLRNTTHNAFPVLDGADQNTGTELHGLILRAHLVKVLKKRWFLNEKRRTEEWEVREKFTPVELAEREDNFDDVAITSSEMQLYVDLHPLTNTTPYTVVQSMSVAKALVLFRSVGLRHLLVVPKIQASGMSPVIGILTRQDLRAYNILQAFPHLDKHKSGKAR

AtCLCa [6] = molecular target: T1, AtCLCa; assay: whole-cell patch clamp, HEK293T; assay type: cell-based; parameters: gene CLC-A; full-length, homodimer; patch clamp: pKH3 vector in HEK293T; settings: 5 mM in pipette (cytosolic side); nitrate bath; pH 7.4; 5 mM MgCl2; room temperature
[7] = molecular target: the molecule itself; assay: cryo-EM structure; AtCLCa in MSP1D1 nanodiscs with soybean polar lipid; 20 mM Tris pH 8.0 with 150 mM NaCl (AtCLCa-Cl-) or 150 mM NaNO3 (AtCLCa-NO3-); C2 symmetry applied

Molecule: Nc1ncnc2c1ncn2[C@@H]1O[C@H](COP(=O)(O)O)[C@@H](O)[C@H]1O [AMP]
- inhibition of NO3^- currents at 5 mM (AtCLCa [1]): ADP produced a weak inhibition while AMP induced a negligible inhibition

Molecule: Nc1ncnc2c1ncn2[C@@H]1O[C@H](COP(=O)(O)OP(=O)(O)O)[C@@H](O)[C@H]1O [ADP]
- inhibition of NO3^- currents at 5 mM (AtCLCa [1]): ADP produced a weak inhibition while AMP induced a negligible inhibition

Molecule: O=[N+]([O-])O [NO3^−]
- cryo-EM structure, 3.2 Å (AtCLCa [2]): Scen and Sint were found of fair densities, which likely corresponds to the bound NO3^−

Molecule: Nc1ncnc2c1ncn2[C@@H]1O[C@H](COP(=O)(O)OP(=O)(O)OP(O)(O)=S)[C@@H](O)[C@H]1O [ATP-γ-S]
- inhibition of currents (AtCLCa [3]): ATP-γ-S induced an inhibition comparable with ATP

Molecule: Nc1ncnc2c1ncn2[C@@H]1O[C@H](COP(=O)(O)OP(=O)(O)OP(=O)(O)O)[C@@H](O)[C@H]1O [ATP]
- inhibition of NO3^- currents at 5 mM (AtCLCa [4]): (E55A/S56A) can completely abolish the inhibitory effect of ATP
- inhibition of NO3^- currents at 5 mM (AtCLCa ΔN44 mutant): exhibits similar inhibition pattern to wild-type AtCLCa upon ATP addition
- inhibition of NO3^- currents at 5 mM (AtCLCa [5]): D753A mutant impairs the inhibition of ATP
- inhibition of NO3^- currents at 5 mM (AtCLCa ΔN53 mutant): the NO3^− currents in ΔN53 mutant are not influenced by the addition of ATP
- decrease of NO3^- currents at 5 mM (AtCLCa [6]): led to a decrease of approximately half of the NO3^− currents induced by wild-type AtCLCa

B1: Arabidopsis thaliana CLCa (AtCLCa) transporter (natural protein, UniProt P92941 1-775, looked up)
chain: T1 sequence (P92941 1-775)
notes: Arabidopsis thaliana CLCa, Uniprot P92941, full-length gene; C-terminal GFP-6xHis tag was fused by a short linker with a TEV protease site and cut off with TEV; residues of the linker may be left; also called AtCLCa-Cl-; AtCLCa-NO3-; source: Pichia pastoris GS115, purified (anti-GFP nanobody resin, TEV digestion, SEC), reconstituted into MSP1D1 nanodiscs; not shown: GFP, C-terminal, cleaved; …
- stoichiometry N [7]: 2
